Assay results reported in the supplement of paper PMC13380429.

What was measured:
Conditions in all cases: 72 h
[1] = test system: Calu-3; test: drug sensitivity score (DSS) for viability; higher = more toxic; extreme values may be limits of the assay
[2] = test system: U2OS; test: as above
[3] = test system: Caco-2; test: as above
[4] = test system: HepG2; test: as above
[5] = test system: Vero E6; test: as above
[6] = test system: Calu-3; test: cell viability relative to DMSO; higher = less toxic
[7] = test system: U2OS; test: as above
[8] = test system: Caco-2; test: as above
[9] = test system: HepG2; test: as above
[10] = test system: Vero E6; test: as above
[11] = test system: Calu-3; test: relative viability EC50 (midpoint between 100% and the lowest measured viability); higher = less toxic
[12] = test system: U2OS; test: as above
[13] = test system: Caco-2; test: as above
[14] = test system: HepG2; test: as above
[15] = test system: Vero E6; test: as above

| SMILES | drug sensitivity score [1] | drug sensitivity score [2] | drug sensitivity score [3] | drug sensitivity score [4] | drug sensitivity score [5] | cell viability ([6]; 1 nM) [%] | cell viability ([6]; 10 nM) [%] | cell viability ([6]; 100 nM) [%] | cell viability ([6]; 1000 nM) [%] | cell viability ([6]; 10000 nM) [%] | cell viability ([7]; 1 nM) [%] | cell viability ([7]; 10 nM) [%] | cell viability ([7]; 100 nM) [%] | cell viability ([7]; 1000 nM) [%] | cell viability ([7]; 10000 nM) [%] | cell viability ([8]; 1 nM) [%] | cell viability ([8]; 10 nM) [%] | cell viability ([8]; 100 nM) [%] | cell viability ([8]; 1000 nM) [%] | cell viability ([8]; 10000 nM) [%] | cell viability ([9]; 1 nM) [%] | cell viability ([9]; 10 nM) [%] | cell viability ([9]; 100 nM) [%] | cell viability ([9]; 1000 nM) [%] | cell viability ([9]; 10000 nM) [%] | cell viability ([10]; 1 nM) [%] | cell viability ([10]; 10 nM) [%] | cell viability ([10]; 100 nM) [%] | cell viability ([10]; 1000 nM) [%] | cell viability ([10]; 10000 nM) [%] | relative viability EC50 [11] [µM] | relative viability EC50 [12] [µM] | relative viability EC50 [13] [µM] | relative viability EC50 [14] [µM] | relative viability EC50 [15] [µM] |
| --- | --- | --- | --- | --- | --- | --- | --- | --- | --- | --- | --- | --- | --- | --- | --- | --- | --- | --- | --- | --- | --- | --- | --- | --- | --- | --- | --- | --- | --- | --- | --- | --- | --- | --- | --- |
| N#C/C(=C\c1ccc(O)c(O)c1)C(N)=O [tyrphostin-AG-99] | 0 | 0 | 0 | 0 | 0 | 102 | 97.2 | 103 | 111 | 112 | 100 | 94.7 | 102 | 105 | 100 | 96.9 | 92.5 | 96.4 | 92.2 | 103 | 96.3 | 112 | 104 | 110 | 102 | 94 | 98.6 | 98.3 | 93.4 | 107 | > 10 | > 10 | > 10 | > 10 | > 10 |
| C#C[C@]1(O)CC[C@H]2[C@@H]3CCC4=CC(=O)CCC4=C3C=C[C@@]21CC [gestrinone] | 0 | 0 | 0 | 0 | 0 | 106 | 93.3 | 99.9 | 97.8 | 94.1 | 94.7 | 95.8 | 91.6 | 99.9 | 93.9 | 107 | 116 | 86.1 | 102 | 101 | 96.7 | 103 | 101 | 103 | 90.6 | 96.6 | 97.2 | 101 | 89.3 | 101 | > 10 | > 10 | > 10 | > 10 | > 10 |
| Nc1nc(OCC2CCCCC2)c2nc[nH]c2n1 [NU-2058] | 0 | 0 | 0 | 0.1 | 0 | 92.4 | 106 | 97.2 | 109 | 105 | 96.2 | 103 | 94.6 | 95.6 | 96 | 98.4 | 94.6 | 96.2 | 96.2 | 90.3 | 120 | 106 | 98.3 | 104 | 86.8 | 103 | 97.6 | 98.2 | 102 | 99.7 | > 10 | > 10 | > 10 | > 10 | > 10 |
| Cc1cccc(Cc2c[nH]cn2)c1C [detomidine] | 0 | 0 | 0 | 0 | 0 | 99.7 | 93 | 102 | 103 | 102 | 101 | 98.2 | 103 | 96.5 | 101 | 94.2 | 94 | 97.5 | 86.7 | 96.1 | 99.4 | 101 | 104 | 113 | 113 | 91 | 101 | 90.5 | 102 | 106 | > 10 | > 10 | > 10 | > 10 | > 10 |
| Cc1[nH]c2ccc(Cl)cc2c1C1=CCNCC1 | 0 | 0 | 0.8 | 0 | 0 | 109 | 106 | 99.8 | 103 | 91.5 | 96.5 | 103 | 95.4 | 96.5 | 88.9 | 95.9 | 102 | 99.4 | 97 | 81.7 | 93.2 | 94.7 | 97.1 | 95.3 | 89.9 | 98.1 | 96.4 | 99.6 | 96 | 91.7 | > 10 | > 10 | > 10 | > 10 | > 10 |
| COc1cc2c(c(OC)c1OC)-c1c(cc3c(c1OC)OCO3)CC(C)C(C)C2 (stereo not given) [schisandrin-B] | 0 | 0 | 0.8 | 0 | 0 | 96.3 | 83.3 | 94.5 | 105 | 90.1 | 101 | 91.8 | 102 | 97.3 | 93.5 | 97.5 | 99.5 | 98.9 | 100 | 77.4 | 89.1 | 99.3 | 95.8 | 105 | 101 | 96 | 98.5 | 93.4 | 96.1 | 101 | > 10 | > 10 | > 10 | > 10 | > 10 |
| Cn1ccnc1S [methimazole] | 0 | 0 | 0 | 0 | 0 | 93.9 | 97.3 | 100 | 100 | 94.5 | 98 | 101 | 98.7 | 99.8 | 98.5 | 99.3 | 84.3 | 99.7 | 86.5 | 101 | 109 | 95.4 | 109 | 81.7 | 101 | 104 | 99.3 | 102 | 106 | 101 | > 10 | > 10 | > 10 | > 10 | > 10 |
